Results reported in patent publication US6340670B1, “Acetal benzylmaltosides as inhibitors of smooth muscle cell proliferation” (American Home Products Corporation, priority 1998, dated 2002).

Test system: Porcine Smooth Muscle Cell
Assay: Effects of Compounds on Cell Proliferation Using 3H Thymidine Incorporation
Format: cell-based
Settings: @ 50 μM, control (100%) = maximally stimulated cells
Procedure: Effects of Compounds on Cell Proliferation Using ^3H Thymidine Incorporation
Human and porcine smooth muscle cells were tested in early passage (generally passage 3-7) at sub-confluent conditions. Cultures were grown in 16 mm (24 well) multi-well culture dishes in medium 199 supplemented with 10% fetal bovine serum and 2% antibiotic/antimycotic. At sub-confluence, the cells were placed in a defined serum free medium (AIM-V; Gibco) for 24-48 h prior to initiating the experimental protocol.
Compounds were added to each well at 50 fold dilution (20 μL/well) and the plates were incubated for 24-36 h at 37° C. in 5% CO2. Compounds were initially dissolved in 50% ethanol and serially diluted into media. Compounds were routinely evaluated at concentrations from 1 to 100 μM. As a control, grade II porcine intestinal mucosal heparin (sodium salt) was routinely evaluated in all cell preparations at concentrations from 0.1 to 100 μg/mL.
At the completion of the test procedure, plates were placed on ice, washed three times with ice cold phosphate buffered saline (PBS) and incubated in ice cold 10% trichloroacetic acid (TCA) got 30 min to remove acid soluble proteins. Solution was transferred to scintillation vials containing 0.4 N HCl (500 μL/vial to neutralize NaOH) and each well was rinsed two times with water (500 μL) for a total volume of 2 mL/vial.
Data was obtained, in triplicate, for both control and experimental samples. Control (100%) data was obtained from maximally stimulated cells, as the result of growth factor or serum stimulation. Experimental data was obtained from cells maximally stimulated with growth factor or serum and treated with compound. Data are expressed as an IC50 or percent inhibition in Table I below.

Molecule	Porcine Smooth Muscle Cell Antiproliferation, percent inhibition [% @ 50]
CCC1OCC2OC(OC3C(CO)OC(OCc4ccc(Cl)c(NC(C)=O)c4)C(O)C3O)C(O)C(O)C2O1 [Example 4, N-{2-Chloro-5-[(4′,6′-O-propylidene-β-D-maltosyl)-oxy-methyl]-pheny}-acetamide]	16
CS(=O)(=O)Nc1cc(COC2OC(CO)C(OC3OC4COC(c5ccccc5)OC4C(O)C3O)C(O)C2O)ccc1Cl [Example 83, N-{5-[(4′,6′-O-Benzylidene-β-D-maltosyl)-oxy-methyl]-2-chloro-phenyl}-methanesulfonamide]	18
CC(=O)Nc1cc(COC2OC(CO)C(OC3OC4COC(CCC#N)OC4C(O)C3O)C(O)C2O)ccc1Cl [Example 18, N-{2-Chloro-5[-(4′,6′-O-((1R)-3-cyano-propylidene)-β-D-maltosyloxy)-methyl]-phenyl}-acetamide]	43

Same assay, conditions: serum/growth factor stimulated cells, 24-36 h incubation, read-out: Porcine Smooth Muscle Cell Antiproliferation IC50

Molecule	IC50 [µM]
CC(=O)Nc1cc(COC2OC(COS(=O)(=O)c3ccc(C)cc3)C(OC3OC4COC(c5ccccc5)OC4C(O)C3O)C(O)C2O)ccc1C [Example 59, N-(5-{[4′,6′-O-Benzylidene-6-O-(4-toluenesulfonyl)-β-D-maltosyl]-oxy-methyl}-2-methyl-phenyl)-acetamide]	0.49
CC(=O)Nc1cc(COC2OC(COC(=O)c3cccnc3)C(OC3OC4COC(c5ccccc5)OC4C(O)C3O)C(O)C2O)ccc1Cl (centres unmarked) [Example 54, Nicotinic acid 6-(3-acetylamino-4-chloro-benzyloxy)-3-(7,8-dihydroxy-2-phenyl-hexahydro-pyrano[32-d][1,3]dioxin-6-yloxy)-4,5-dihydroxy-tetrahydro-pyran-2-ylmethyl ester]	0.211
COC(=O)Nc1cc(COC2OC(CO)C(OC3OC4COC(c5ccccc5)OC4C(O)C3O)C(O)C2O)ccc1Cl [Example 80, N-{5-[(4′,6′-O-Benzylidene-β-D-maltosyl)-oxy-methyl]-2-chloro-phenyl}-carbamic acid methyl ester]	7.57
CC(=O)Nc1cc(COC2OC(COC(=O)Cc3ccccc3)C(OC3OC4COC(c5ccccc5)OC4C(O)C3O)C(O)C2O)ccc1Cl [Example 46, (R)-N-[-2-Chloro-5-[[[6-O-(phenylacetyl)-4-O-[4,6-O-(phenylmethylene)-α-D-glucopyranosyl]-β-D-glucopyranosyl]oxy]methyl]phenyl]acetamide]	0.032
CC(=O)OC1C(OC2C(COC(=O)c3cccnc3)OC(OCc3ccc(Cl)c([N+](=O)[O-])c3)C(OC(C)=O)C2OC(C)=O)OC2COC(c3ccccc3)OC2C1OC(C)=O [Example 33, (R)-(4-Chloro-3-nitrophenyl)methyl 4-[2,3-di-O-acetyl-4,6-O-(phenylmethylene)-α-D-glucopyranosyl]-β-D-glucopyranoside 2,3-diacetate 6-(3-pyridinecarboxylate)]	0.312
OCC1OC(OCc2ccc(Cl)cc2)C(O)C(O)C1OC1OC2COC(c3ccccc3)OC2C(O)C1O [Example 68, (4-Chloro)-benzyl-4′,6′-O-benzylidene-β-D-maltoside]	25.3
CC(=O)Nc1cc(COC2OC(COS(=O)(=O)c3ccc(C)cc3)C(OC3OC4COC(c5ccccc5)OC4C(OC(C)=O)C3OC(C)=O)C(OC(C)=O)C2OC(C)=O)ccc1Cl [Example 7, N-(5-{[2,32′,3′-Tetra-O-acetyl-4′,6′-O-benzylidene-6-O-(4-toluenesulfonyl)-β-D-maltosyl]-oxy-methyl}-2-chloro-phenyl)-acetamide]	0.088
CC(=O)Nc1cc(COC2OC(CO)C(OC3OC4COC(c5ccc(Cl)cc5)OC4C(O)C3O)C(O)C2O)ccc1Cl [Example 12, N-{2-Chloro-5-[(4′,6′-O-(4-chloro)-benzylidene-β-D-maltosyl)-oxy-methyl]-phenyl}-acetamide]	29.4
O=C(Nc1cc(CO[C@@H]2O[C@H](COC(=O)c3ccccc3I)[C@@H](O[C@H]3O[C@@H]4COC(c5ccccc5)O[C@H]4[C@H](O)[C@H]3O)[C@H](O)[C@H]2O)ccc1Cl)c1ccc(C(=O)c2ccccc2)cc1 (stereo partly drawn) [Example 72, 4-Benzoyl-N-{5-[(4′,6′-O-benzylidene-6-O-(2-iodo)-benzoyl-β-D-maltosyl)-oxy-methyl]-2-chloro-phenyl}-benzamide]	0.016
COC(=O)CCCC(=O)OCC1OC(OCc2ccc(Cl)c(NC(C)=O)c2)C(O)C(O)C1OC1OC2COC(c3ccccc3)OC2C(O)C1O [Example 28, (R)-N-[2-Chloro-5-[[[6-O-(5-methoxy-1,5-dioxopentyl)-4-O-[4,6-O-(phenylmethylene)-α-D-glucopyranoysl]-β-D-gluconyranosyl]oxy]methyl]-phenyl]acetamide]	0.4
CC(=O)Nc1cc(COC2OC(CO)C(OC3OC4COC(c5ccncc5)OC4C(O)C3O)C(O)C2O)ccc1Cl [Example 22, N-(2-Chloro-5-{[4′,6′-O-(4-pyridinemethylidene)-β-D-maltosyl]-oxy-methyl}-phenyl)-acetamide]	5.53
O=C(Nc1cc(COC2OC(COC(=O)c3ccc(I)cc3)C(OC3OC4COC(c5ccccc5)OC4C(O)C3O)C(O)C2O)ccc1Cl)c1ccc(C(=O)c2ccccc2)cc1 [Example 74, 4-Benzoyl-N-{5-[(4′,6′-O-benzylidene-6-(4-iodo-benzoyl)-oxy-β-D-maltosyl)-oxy-methyl]-2-chloro-phenyl}-benzoic acid amide]	1.22
C[C@H](N)C(=O)Nc1cc(CO[C@@H]2O[C@H](COC(=O)c3ccccc3)[C@@H](O[C@H]3O[C@@H]4COC(c5ccccc5)O[C@H]4[C@H](O)[C@H]3O)[C@H](O)[C@H]2O)ccc1Cl (stereo partly drawn) [Example 77, N′-{5-[(6-O-benzoyl-4′,6′-O-benzylidene-β-D-maltosyl)-oxy-methyl]-2-chloro-phenyl}-L-alaninamide]	0.081
CC(=O)Nc1cc(COC2OC(COC(=O)c3ccccc3)C(OC3OC4COC(c5ccccc5)OC4C(O)C3O)C(O)C2O)ccc1C#N [Example 84, N-{5-[(6-O-Benzoyl-4′,6′-O-benzylidene-β-D-maltosyl)-oxy-methyl]-2-cyano-phenyl}-acetamide]	0.25
N-{5-[(6-O-Benzyl-4′,6′-O-ethylidene-β-D-maltosyl)-oxy-methyl]-2-chloro-phenyl}-acetamide [Example 9]	0.083
CC(NC(=O)OCC1c2ccccc2-c2ccccc21)C(=O)Nc1cc(COC2OC(CO)C(OC3OC4COC(c5ccccc5)OC4C(O)C3O)C(O)C2O)ccc1Cl [Example 75, (1-{5-[(4′,6′-O-Benzylidene-β-D-maltosyl)-oxy-methyl]-2-chloro-phenyl-carbamoyl}ethyl)-carbamic acid 9H-fluoren-9ylmethyl ester]	4.69
CC(=O)Nc1cc(COC2OC(COC(=O)Cc3ccccc3)C(OC3OC4COC(c5ccccc5)OC4C(OC(C)=O)C3OC(C)=O)C(OC(C)=O)C2OC(C)=O)ccc1Cl [Example 47, (R)-N-[2-Chloro-5-[[[2,3-di-O-acetyl-4-O-[2,3-di-O-acetyl-4,6-O-(phenylmethylene)-α-D-glucopyranosyl]-6-O-(phenylacetyl)-β-D-glucopyranosyl]-oxy]methyl]phenyl]acetamide]	0.078
CCC1OCC2OC(OC3C(COC(=O)c4ccccc4)OC(OCc4ccc(Cl)c(NC(C)=O)c4)C(O)C3O)C(O)C(O)C2O1 [Example 5, N-{5-[(6-O-Benzoyl-4′,6′-O-propylidene-β-D-maltosyl)-oxy-methyl]-2-chloro-phenyl}-acetamide]	0.037
CC(=O)Nc1cc(COC2OC(COS(=O)(=O)c3ccc(C)cc3)C(OC3OC4COC(c5ccccc5)OC4C(O)C3O)C(O)C2O)ccc1Cl [Example 6, N-(5-{[4′,6′-O-Benzylidene-6-O-(4-toluenesulfonyl)-β-D-maltosyl]-oxy-methyl}2-chloro-phenyl)-acetamide]	0.133
O=C(Nc1cc(COC2OC(CO)C(OC3OC4COC(c5ccccc5)OC4C(O)C3O)C(O)C2O)ccc1Cl)c1cccnc1 [Example 61, (R)-N-[2-Chloro-5-[[[4-O-[4′,6′-O-(phenylmethylene)-α-D-glucopyranosyl]-β-D-glucopyranosyl]oxy]methyl]phenyl]-3-pyridinecarboxamide]	13.7
O=C(OCC1OC(SCc2ccc(Cl)c([N+](=O)[O-])c2)C(O)C(O)C1OC1OC2COC(c3ccccc3)OC2C(O)C1O)c1ccccc1 [Example 87, (4-Chloro-3-nitro-benzyl) 6-O-benzoyl-4′,6′-O-benzoyl-4′,6′-O-benzylidene-1-thio-β-D-maltoside]	0.031
O=C(Nc1cc(COC2OC(COC(=O)c3cccc(I)c3)C(OC3OC4COC(c5ccccc5)OC4C(O)C3O)C(O)C2O)ccc1Cl)c1ccc(C(=O)c2ccccc2)cc1 [Example 73, 4-Benzoyl-N-{5-[(4′,6′-O-benzylidene-6-O-(3-iodo-benzoyl)-β-D-maltosyl)-oxy-methyl]-2-chloro-phenyl}-benzamide]	0.132
CC(=O)Nc1cc(COC2OC(COCc3ccccc3)C(OC3OC4COC(c5ccccc5)OC4C(O)C3O)C(O)C2O)ccc1Cl [Example 8, N-{5-[(6-O-Benzyl-4′,6′-O-benzylidene-β-D-maltosyl)-oxy-methyl]-2-chloro-phenyl}-acetamide]	0.001
